Like-named read-outs stand apart in the source and are kept apart here.
Columns and labels:
[1] = system: AMPK in HepG2 cell; settings: HepG2 cells, reported in the literature; cited from earlier work
[2] = Stability against human liver microsomes; type: in vitro ADME; settings: 2 μM compound
Method: (§1) Determination of Stability Against Mouse and Human Microsomes
(§2) Pooled human liver microsomes (Cat. 452161; Lot. 23418) were purchased from Corning and pooled male mouse liver microsomes (Cat. M1000; Lot. 1210302) were purchased from Xenotech. Microsomes were stored at −80° C. prior to use. 40 μL of ultra-pure H2O was used instead of NADPH solution in the negative control. The negative control was used to exclude the misleading factor that was resulted from instability of chemical itself. Samples with NADPH were prepared in duplicate. Negative controls were prepared in singlet.
(§3) The reaction was started with the addition of 4 μL of 200 μM compound solution to each master solution to get the final concentration of 2 μM. Verapamil was used as positive control in the assay. Aliquots of 50 μL were taken from the reaction solution at 0, 15, 30, 45 and 60 min. The reaction was stopped by addition of 4 volumes of cold acetonitrile with IS (200 nM imipramine, […] labetalol and 2 μM ketoprofen). Samples were centrifuged at 3,220 g for 40 minutes. Aliquot of 90 μL of the supernatant was mixed with 90 μL of ultra-pure H2O and then was used for LC-MS/MS analysis. Results are shown in Table 3 by indicating remaining % of the test compound after 60 minutes incubation with liver microsomes from human and mouse in the presence of NADPH.

[3] = Stability against mouse liver microsomes; type: in vitro ADME; settings: 2 μM compound
Method: as §1, §2, §3

[4] = system: A549; test: Anti-proliferative activity, CellTiterGlo assay, A549; type: cell-based; settings: Homo sapiens; A549, 96 hrs incubation; read-out: Antiproliferative activities (IC50) A549
Method: (§4) The anti-proliferative activities of the compounds against 6 human cancer cell lines were determined by CellTiterGlo assay kit. All cells were obtained from ATCC and cultured as recommended by the vendor. Cells were assayed in exponential growth phase. Sample solution was prepared by 3-fold serial dilution from 30 mM stock for 10 doses in DMSO. Antiproliferative activities were measured by CellTiterGlo assay kit according to the protocol after cells were incubated for 96 hrs in a 37° C., 5% CO2 incubator.
(§5) On the 4th day of incubation, i) 15 μl reagent (CelltiterGlo assay kit) was added per well and plate was shaken (avoiding light) for 2 mins on a plate shaker, ii) the plate was kept (avoiding light) in room temperature for 30 min, and iii) the luminescence value was recorded by Multiplate reader.

[5] = system: HT29; test: Anti-proliferative activity, CellTiterGlo assay, HT29; type: cell-based; settings: Homo sapiens, HT-29; HT29, 96 hrs incubation; read-out: Antiproliferative activities (IC50) HT29
Method: as §4, §5

[6] = system: BxPC-3; test: Anti-proliferative activity, CellTiterGlo assay, BxPC-3; type: cell-based; settings: Homo sapiens; BxPC-3, 96 hrs incubation; read-out: Antiproliferative activities (IC50) BxPC-3
Method: as §4, §5

[7] = system: LNCaP; test: Anti-proliferative activity, CellTiterGlo assay, LNCaP; type: cell-based; settings: Homo sapiens, 96 hrs incubation, read-out: Antiproliferative activities (IC50) LNCaP
Method: as §4, §5

[8] = system: MDA-MB-231; test: Anti-proliferative activity, CellTiterGlo assay, MDA-MB-231; type: cell-based; settings: Homo sapiens; MDA-MB-231, 96 hrs incubation; read-out: Antiproliferative activities (IC50) MDA-MB-231
Method: as §4, §5

[9] = system: U87-MG; test: Anti-proliferative activity, CellTiterGlo assay, U87-MG; type: cell-based; settings: Homo sapiens, U-87 MG, 96 hrs incubation, read-out: Antiproliferative activities (IC50) U87-MG
Method: as §4, §5

[10] = Solubility in pH4.0 and pH7.4 phosphate buffer solution; settings: 2 hr incubation, 25° C.
Method: 1) Preparation of Stock Solutions
The stock solutions of test compounds and positive control compound were prepared in DMSO at the concentration of 30 mM. Diclofenac was used as positive control in the assay.
2) Procedures for Solubility Determination
The stock solution of each compound (10 μL) was placed in order into their proper 96-well rack, followed by adding 990 μL of PBS at pH 4.0 and pH 7.4 into each vial of the cap-less Solubility Sample plate. This study was performed in duplicate. One stir stick was added to each vial and then vials were sealed using a molded PTDE/SIL 96-Well Plate Cover. The Solubility Sample plate was transferred to the Thermomixer Comfort plate shaker and incubated at 25° C. for 2 hours with shaking at 1,100 rpm. After 2 hours incubation, stir sticks were removed using a big magnet and all samples from the Solubility Sample plate were transferred into the filter plate. All the samples were filtered by using the vacuum manifold. The filtered samples were diluted with methanol.
3) Samples Analyzed by LC-MS/MS:
The LC system comprised a Shimadzu liquid chromatograph separation system equipped with degasser DGU-20A3, solvent delivery unit LC-20AD, system controller CBM-20A, column oven CTO-10ASVP and CTC Analytics HTC PAL System. Mass spectrometric analysis was performed using an API 4000 instrument from AB Inc (Canada) with an ESI interface.

[11] = system: CT26 tumor cells; test: Efficacy study in CT26 syngeneic mouse model; type: in vivo; settings: for antitumor activity (in words): Cmpd 19 alone
Method: An efficacy study was conducted by using Compound 19 (Cmpd 19) with CT26 syngeneic mouse model. Female BALB/c mice (Vital River, Beijing, China) of 7 to 9 weeks old with body weight between 19 and 21 g were used. Each mouse was inoculated subcutaneously on the right flank with CT26 tumor cells (2×10^5) in 0.1 mL of PBS for tumor development. On Day 5 after tumor inoculation, mice were randomized into groups. Each group consisted of 10 tumor-bearing mice. The treatment with Cmpd 19 was then started on Day 5.
As an anti PD-1 antibody, anti-mouse PD-1 antibody (CD279, Clone: RMP1-14, Catalog #: BE0146 from Bio X Cell) was used.
The measurement of tumor size was conducted three times weekly with calipers, and the tumor volume (mm^3) is estimated using the formula: TV=(a×b^2)/2, where “a” and “b” are long and short diameters of a tumor, respectively. The TVs were used for calculation of the tumor growth inhibition (TGI, an indicator of antitumor effectiveness), using formula: TGI=(1−T/C)×100%, where “T” and “C” are the mean relative volumes (% tumor growth) of the tumors in the treated and the control groups. Data were analyzed using GraphPad Software and represented as the mean value±SD in FIG. 3 in which error bars are shown. The p values were assessed using One-Way ANOVA Dunnett test and vehicle control (G1) as control group. A case with p<0.05 was considered as statistically significant.

[12] = G3: Cmpd 19 50 mg/kg p.o. once a day x 18
[13] = G4: Cmpd 19 25 mg/kg p.o. once a day x 18

SMILES: COc1c(Cl)c(C)c(C=O)c(O)c1C/C=C(C)/C=C/[C@@]1(C)[C@H](C)CCC(=O)[C@@H]1C [MAC, 4-O-Methy-ascochlorin]
- Solubility pH 4.0 PBS (pH 4): <0.08 μM
- Solubility pH 7.4 PBS (pH 7.4): 0.07 μM
- AMPK activation in HepG2 cell [1]: ability for activating AMPK

SMILES: CN(C)C(=N)N=C(N)N [Metformin]
- AMPK activation in HepG2 cell [1]: only at surprisingly high concentration of mM level

SMILES: COc1c(Cl)c(C)c(/C=N/O)c(O)c1C/C=C(C)/C=C/[C@@]1(C)[C@H](C)CC[C@](C)(O)[C@@H]1C [Compound 7, 4-chloro-2-[(2E,4E)-5-[(1R,2R,3S,6R)-3-hydroxy-1,2,3,6-tetramethylcyclohexyl]-3-methylpenta-2,4-dien-1-yl]-6-[(1E)-(hydroxyimino)methyl]-3-methoxy-5-methylphenol]
- Liver microsome stability remaining % after 60 min incubation with NADPH, human LM [2]: 71%
- Liver microsome stability remaining % after 60 min incubation with NADPH, mouse LM [3]: 71%
- IC50 [4]: 6.5 µM
- IC50 [5]: 10 µM
- IC50 [6]: 12.8 µM
- IC50 [7]: 7.2 µM
- IC50 [8]: 6.8 µM
- IC50 [9]: 13.1 µM

SMILES: CO/N=C/c1c(C)c(Cl)c(OC)c(C/C=C(C)/C=C/[C@@]2(C)[C@H](C)CC[C@](C)(O)[C@@H]2C)c1O [Compound 14, 4-chloro-2-[(2E,4E)-5-[(1R,2R,3S,6R)-3-hydroxy-1,2,3,6-tetramethylcyclohexyl]-3-methylpenta-2,4-dien-1-yl]-3-methoxy-6-[(1E)-(methoxyimino)methyl]-5-methylphenol]
- Liver microsome stability remaining % after 60 min incubation with NADPH, human LM [2]: 99%
- Liver microsome stability remaining % after 60 min incubation with NADPH, mouse LM [3]: 88%

SMILES: COc1c(Cl)c(C)c(C=NCC(N)=O)c(O)c1C/C=C(C)/C=C/[C@@]1(C)[C@H](C)CCC(=O)[C@@H]1C [compound #13 in WO2004/074236]
- Solubility pH 4.0 PBS ([10]; pH 4.0 phosphate buffer solution): converted to MAC
- Solubility pH 7.4 PBS ([10]; pH 7.4 phosphate buffer solution): 0.02 μM

SMILES: CO/N=C/c1c(C)c(Cl)c(OC)c(C/C=C(C)/C=C/[C@@]2(C)[C@H](C)CC/C(=N\OCC(=O)O)[C@@H]2C)c1O [Compound 19, 2-([[(1E,2R,3R,4R)-3-[(1E,3E)-5-[3-chloro-6-hydroxy-2-methoxy-5-[(1E)-(methoxyimino)methyl]-4-methylphenyl]-3-methylpenta-1,3-dien-1-yl]-2,3,4-trimethylcyclohexylidene]amino]oxy)acetic acid]
- antitumor activity (in words) ([11]; 25 mg/kg p.o.): minor or no antitumor activity
- antitumor activity (in words) ([11]; 50 mg/kg p.o.): minor or no antitumor activity
- TGI (%) [11, 12]: −1.4%
- Tumor volume (mm^3, on Day 23) [11, 12]: 6,483 ± 310 mm^3
- TGI (%) [11, 13]: 6.5%
- Tumor volume (mm^3, on Day 23) [11, 13]: 6,056 ± 689 mm^3

From patent publication US11298358B2, “Combination therapy using ascochlorin derivative” (priority 2017, dated 2022)
